Tested on: laser-induced choroidal neovascularization
Test: Laser induction of choroidal neovascularization in mice, oral treatment
Format: in vivo, C57BI6 mice
Settings: 30 mg/kg/day orally during the last 7 days, day 14 after induction
Experimental: C57BI6 mice were used in these experiments. A model of laser-induced choroidal neovascularization (4 impacts per eye around the papilla) was applied to the animals as described by Tobe et al. Am. J. Pathol., 1998).
On day 14 after the induction and after monitoring by angiography, which makes it possible to estimate the percentage of lesions developing neovascularization, the animals are sacrificed and the eyeballs are enucleated for histological analysis. The mice are treated orally with one of the compounds of formula (I) during the last 7 days. The dose chosen for the monohydrate of the sodium salt of 2-amino-5-[(1-methoxy-2-methylindolizin-3-yl)carbonyl]benzoic acid is 30 mg/kg/day. The vehicle used is a 0.6% solution of methylcellulose in water.
Four mice are used for the control group and six mice for the treated group.
The size of the neovascular reaction is estimated from frozen sections by morphometric evaluations of the thickness using a computerized image analysis system. […]
Estimation is carried out by measuring the B/C ratio between, on the one hand, the EPR and the peak of the neovascular reaction (“B”), and, on the other hand, the thickness of the adjacent intact choroidal layer (“C”). This quantifying system was preferred to measuring surface areas of lesions as it is independent of the orientation of the histological sections.

`COc1c(C)c(C(=O)c2ccc(N)c(C(=O)O)c2)n2ccccc12` [2-amino-5-[(1-methoxy-2-methylindolizin-3-yl)carbonyl]benzoic acid] was tested, and the “histological analysis and anti-CD31 immunohistochemistry of the laser impact sites” value was “only a moderate thickening of the choriocapillary where the impacts occurred, without obvious sign of neovascularization” and the “reduction of the laser-induced neovascular reaction, quantified by the B/C ratio, in comparison with the control mice” value (frozen sections, morphometric thickness, p<0.001) was about 50%.
